Experiments:
Assay type in all cases: in vivo
[1] = test system: weed species; experiment: Post-emergence test, summary over all weeds
Description: To evaluate their herbicidal activity, compounds according to the invention are tested using a representative range of plants:
These acetone solutions are diluted with water and the resulting formulations applied at dosage levels equivalent of about 0.025 to 0.4 kg per hectare of test compound per pot. After spraying the plants are placed on greenhouse benches and are cared for in the usual manner, commensurate with conventional greenhouse practices. From 2 to 4 weeks after treatment, the seedling plants are examined and rated according to the rating system provided above.

[2] = test system: Abutilon theophrasti (ABUTH); experiment: Pre-emergence test; details: 3 weeks after treatment
Description: (§1) To evaluate their herbicidal activity, compounds according to the invention are tested using a representative range of plants: […] The pre-emergence tests involve spraying a liquid formulation of the compound onto the soil in which the seeds of the plant species mentioned above has recently been sown. The soil used in the tests is a prepared horticultural loam. […] In these tests untreated sown soil are used as controls.

[3] = test system: Digitaria sanguinalis (DIGSA); experiment: Pre-emergence test; details: 3 weeks after treatment
Description: as §1

[4] = test system: Alopecurus myosuroides (ALOMY); experiment: Pre-emergence test; details: 3 weeks after treatment
Description: as §1

[5] = test system: Ipomoea hederacea (IPOHE); experiment: Pre-emergence test; details: 3 weeks after treatment
Description: as §1

[6] = test system: Setaria viridis (SETVI); experiment: Pre-emergence test; details: 3 weeks after treatment
Description: as §1

[7] = test system: Zea mays (ZEAMX); experiment: Pre-emergence test; details: crop (corn), 3 weeks after treatment
Description: as §1

[8] = test system: Matricaria inodora (MATIN); experiment: Pre-emergence test; details: 3 weeks after treatment
Description: as §1

[9] = test system: Cassia obtusifolia (CASOB); experiment: Pre-emergence test; details: 3 weeks after treatment
Description: as §1

[10] = test system: Echinochloa crus-galli (ECHCG); experiment: Pre-emergence test; details: 3 weeks after treatment
Description: as §1

[11] = test system: Ambrosia artemisifolia (AMBEL); experiment: Pre-emergence test; details: 3 weeks after treatment
Description: as §1

[12] = test system: Lolium multiflorum (LOLMU); experiment: Pre-emergence test; details: 3 weeks after treatment
Description: as §1

[13] = test system: Lamium purpureum (LAMPU); experiment: Pre-emergence test; details: 3 weeks after treatment
Description: as §1

[14] = test system: Galium aparine (GALAP); experiment: Pre-emergence test; details: 0.013 kg/ha, 3 weeks after treatment
Description: as §1

With `Cn1nc(C(F)(F)F)cc1Oc1cccc(-n2ccc(C(F)(F)F)n2)n1` [Comparison] the “Number of weed species controlled” value ([1]; 0.025 kg/ha) was “one species”, the “Number of weed species controlled” value ([1]; 0.100 kg/ha) was “four species” and the “Assessment rating ABUTH (pre-emergence application)” value (“Assessment rating ABUTH” for short) ([2]; 0.013 kg/ha) was 0 (0 - No effect). The “Assessment rating ABUTH” value ([2]; 0.025 kg/ha) was 0 (0 - No effect), the “Assessment rating ABUTH” value ([2]; 0.100 kg/ha) was 5 (5 - Definite injury) and the “Assessment rating ABUTH” value ([2]; 0.400 kg/ha) was 9 (9 - Complete kill). The “Assessment rating DIGSA (pre-emergence application)” value (shortened to “Assessment rating DIGSA”) ([3]; 0.013 kg/ha) was 9 (9 - Complete kill), the “Assessment rating DIGSA” value ([3]; 0.025 kg/ha) was 9 (9 - Complete kill) and the “Assessment rating DIGSA” value ([3]; 0.100 kg/ha) was 9 (9 - Complete kill). The “Assessment rating DIGSA” value ([3]; 0.400 kg/ha) was 9 (9 - Complete kill), the “Assessment rating ALOMY (pre-emergence application)” value (“Assessment rating ALOMY” below) ([4]; 0.013 kg/ha) was 0 (0 - No effect) and the “Assessment rating ALOMY” value ([4]; 0.025 kg/ha) was 1 (1 - Trace effect). For the same compound, the “Assessment rating ALOMY” value ([4]; 0.100 kg/ha) was 4 (4 - Injury), the “Assessment rating ALOMY” value ([4]; 0.400 kg/ha) was 8 (8 - Approaching complete kill) and the “Assessment rating IPOHE (pre-emergence application)” value (from here on “Assessment rating IPOHE”) ([5]; 0.013 kg/ha) was 0 (0 - No effect). For the same compound, the “Assessment rating IPOHE” value ([5]; 0.025 kg/ha) was 1 (1 - Trace effect), the “Assessment rating IPOHE” value ([5]; 0.100 kg/ha) was 3 (3 - Moderate effect) and the “Assessment rating IPOHE” value ([5]; 0.400 kg/ha) was 7 (7 - Good herbicidal effect). The “Assessment rating SETVI (pre-emergence application)” value (shortened to “Assessment rating SETVI”) ([6]; 0.013 kg/ha) was 2 (2 - Slight effect), the “Assessment rating SETVI” value ([6]; 0.025 kg/ha) was 2 (2 - Slight effect) and the “Assessment rating SETVI” value ([6]; 0.100 kg/ha) was 8 (8 - Approaching complete kill). For the same compound, the “Assessment rating SETVI” value ([6]; 0.400 kg/ha) was 9 (9 - Complete kill), the “Assessment rating ZEAMX (pre-emergence application)” value (“Assessment rating ZEAMX” below) ([7]; 0.013 kg/ha) was 0 (0 - No effect) and the “Assessment rating ZEAMX” value ([7]; 0.025 kg/ha) was 0 (0 - No effect). The “Assessment rating ZEAMX” value ([7]; 0.100 kg/ha) was 1 (1 - Trace effect), the “Assessment rating ZEAMX” value ([7]; 0.400 kg/ha) was 2 (2 - Slight effect) and the “Assessment rating MATIN (pre-emergence application)” value (from here on “Assessment rating MATIN”) ([8]; 0.013 kg/ha) was 2 (2 - Slight effect). For the same compound, the “Assessment rating MATIN” value ([8]; 0.025 kg/ha) was 7 (7 - Good herbicidal effect), the “Assessment rating MATIN” value ([8]; 0.100 kg/ha) was 9 (9 - Complete kill) and the “Assessment rating MATIN” value ([8]; 0.400 kg/ha) was 9 (9 - Complete kill). For the same compound, the “Assessment rating CASOB (pre-emergence application)” value (shortened to “Assessment rating CASOB”) ([9]; 0.013 kg/ha) was 0 (0 - No effect), the “Assessment rating CASOB” value ([9]; 0.025 kg/ha) was 0 (0 - No effect) and the “Assessment rating CASOB” value ([9]; 0.100 kg/ha) was 2 (2 - Slight effect). For the same compound, the “Assessment rating CASOB” value ([9]; 0.400 kg/ha) was 5 (5 - Definite injury), the “Assessment rating ECHCG (pre-emergence application)” value (“Assessment rating ECHCG” below) ([10]; 0.013 kg/ha) was 0 (0 - No effect) and the “Assessment rating ECHCG” value ([10]; 0.025 kg/ha) was 2 (2 - Slight effect). For the same compound, the “Assessment rating ECHCG” value ([10]; 0.100 kg/ha) was 4 (4 - Injury), the “Assessment rating ECHCG” value ([10]; 0.400 kg/ha) was 7 (7 - Good herbicidal effect) and the “Assessment rating AMBEL (pre-emergence application)” value (from here on “Assessment rating AMBEL”) ([11]; 0.013 kg/ha) was 0 (0 - No effect). The “Assessment rating AMBEL” value ([11]; 0.025 kg/ha) was 4 (4 - Injury), the “Assessment rating AMBEL” value ([11]; 0.100 kg/ha) was 6 (6 - Herbicidal effect) and the “Assessment rating AMBEL” value ([11]; 0.400 kg/ha) was 8 (8 - Approaching complete kill). For the same compound, the “Assessment rating LOLMU (pre-emergence application)” value (shortened to “Assessment rating LOLMU”) ([12]; 0.013 kg/ha) was 3 (3 - Moderate effect), the “Assessment rating LOLMU” value ([12]; 0.025 kg/ha) was 5 (5 - Definite injury) and the “Assessment rating LOLMU” value ([12]; 0.100 kg/ha) was 8 (8 - Approaching complete kill). For the same compound, the “Assessment rating LOLMU” value ([12]; 0.400 kg/ha) was 8 (8 - Approaching complete kill), the “Assessment rating LAMPU (pre-emergence application)” value (“Assessment rating LAMPU” below) ([13]; 0.013 kg/ha) was 1 (1 - Trace effect) and the “Assessment rating LAMPU” value ([13]; 0.025 kg/ha) was 6 (6 - Herbicidal effect). For the same compound, the “Assessment rating LAMPU” value ([13]; 0.100 kg/ha) was 8 (8 - Approaching complete kill), the “Assessment rating LAMPU” value ([13]; 0.400 kg/ha) was 8 (8 - Approaching complete kill) and the “Assessment rating GALAP (pre-emergence application)” value [14] was 0 (0 - No effect).

— patent US6448204B1, “Herbicidal 2-aryloxy-4-methyl-6-pyrazol-1-yl-pyridines” (BASF Aktiengesellschaft, priority 1999, dated 2002)
